Patent publication US20240150389A1, “MODIFIED GUANINES” (NUCLERA NUCLEICS LTD, priority 2021, published 2024)

How the values were obtained:
TdT = test: Enzymatic DNA synthesis reactions (N+20 nucleotide additions with TdT, analysed by next-generation sequencing); format: biochemical
Procedure: Enzymatic N+20 nucleotide addition reactions were conducted on polymer-coated silica paramagnetic particles. Enzymatic DNA synthesis was performed on a ThermoFisher KingFisher sample purification system. Enzymatic DNA synthesis consists of cycles of addition solution (containing TdT, reversibly terminated nucleotide and a near-neutral extension solution comprising one or more buffers (e.g., Tris or cacodylate), one or more salts (e.g., Na^+, K^+, Mg^2+, Mn^2+, Cu^2+, Zn^2+, Co^2+, etc. all with appropriate counterions, such as Cl^−) and inorganic pyrophosphatase (e.g., the Saccharomyces cerevisiae homolog)), wash 1 solution (HEPES+5 mM EDTA at pH 8.00), deblock solution (sodium nitrite at pH 5.5), and wash 2 solution (HEPES at pH 7.20). The following sequences […] (Oligo A) and […] (Oligo B) were synthesized in triplicate. DNA products were analysed by next-generation sequencing on an Illumina MiniSeq. Data showing the percent perfect sequences are shown in the following plots for synthesis of these sequences with reversibly terminated dG and reversibly terminated 8-aza-dG; other nucleotides are reversibly terminated dA, dC or dT.

[1] = Stability tests of modified 2′-deoxyguanosines in NDS buffer vs. 2′-deoxyguanosine (nitrite-mediated deamination); format: physicochemical; conditions: for stability in NDS compared with 2′-deoxyguanosine: nitrite deprotection solution (sodium nitrite in 1M sodium acetate, pH 5.5), room temperature, over 4 days, HPLC or LC/MS
Procedure: Stability Tests of Modified 2′-Deoxyguanosines in NDS Buffer vs. 2′-Deoxyguanosine
Nitrite deprotection solution (NDS) was prepared from sodium nitrite (380 mg, 5.5 mmol) and 1M pH 5.5 sodium acetate (7.868 mL) and adjusted to pH 5.5 with 10M sodium hydroxide. Samples of nucleoside (˜0.5 mg) were dissolved in 1 mL aliquots of this buffer. The samples were analysed by HPLC or LC/MS using Method 1 or Method 2 immediately after making up the samples and at intervals over 4 days while stored at room temperature alongside reference samples of 2′-deoxyguanosine. 2′-Deoxyguanosine gave an approximately 8:1 mixture of 2′-deoxyxanthosine and Peak (3) with the same mass as 2′-deoxyxanthosine. 7-Deaza-2′-deoxyguanosine gave 7-deaza-2′-deoxyxanthosine as one component of a complex mixture of products. Other nucleosides gave products with masses corresponding to the products of substitution of NH2 with OH (increase of 1 Da) assigned to the 2′-deoxyxanthosine analogues. Data for 7-deaza-2′-deoxyguanosine (X=CH, Y=CH), 7-deaza-7-trifluoromethyl-2′-deoxyguanosine (X=CCF3, Y=CH), 7-deaza-7-cyano-2′-deoxyguanosine, 7-deaza-7-methanesulfonyl-2′-deoxyguanosine (X=CSO2Me, Y=CH) and 8-aza-2′-deoxyguanosine (X=N, Y=N) for experiments run in parallel with 2′-deoxyguanosine (X=CH, Y=N) are shown in the plots below.

| Molecule | stability in NDS compared with 2′-deoxyguanosine [1] | further results |
| --- | --- | --- |
| 3′-(O)-Acetoxime-8-Aza-2′-Deoxyguanosine 5′-Triphosphate [reversibly terminated 8-aza-dG] | – | efficiency of additions of any nucleotide to 8-aza-dG terminated sequences compared with dG terminated sequences (TdT; TdT addition, Oligo A and Oligo B): less efficient; percent perfect sequences compared with products made with dG (TdT; synthesis of Oligo A and Oligo B in triplicate, Illumina MiniSeq): lower level of percent perfect sequences |
| Nc1nc2c(c(C(F)(F)F)cn2[C@H]2C[C@H](O)[C@@H](CO)O2)c(=O)[nH]1 [7-Deaza-7-Trifluoromethyl-2′-Deoxyguanosine] | slightly more stable | – |
| CS(=O)(=O)c1cn(C2CC(O)C(CO)O2)c2nc(N)[nH]c(=O)c12 (stereo not shown) [7-(MethanesulfonyI)-7-Deaza-2′-Deoxyguanosine] | slightly more stable | – |
| N#Cc1cn([C@H]2C[C@H](O)[C@@H](CO)O2)c2nc(N)[nH]c(=O)c12 [7-deaza-7-cyano-2′-deoxyguanosine, 7-Deaza-7-Cyano-2′-Deoxyguanosine] | slightly more stable | – |
| Nc1nc2c(ccn2[C@H]2C[C@H](O)[C@@H](CO)O2)c(=O)[nH]1 [7-Deaza-2′-deoxyguanosine, reference compound] | much less stable | – |
| Nc1nc2c(nnn2[C@H]2C[C@H](O)[C@@H](CO)O2)c(=O)[nH]1 [8-Aza-2′-deoxyguanosine] | – | factor by which more stable in NDS than 2′-deoxyguanosine ([1]; nitrite deprotection solution pH 5.5, room temperature, run in parallel with 2′-deoxyguanosine): 4.2 |
